Data from patent publication US20050020643A1, “Pyridinyl amides and compositions thereof for use as fungicides” (priority 2002, published 2005).
Like-named read-outs stand apart in the source and are kept apart here. Marks after values point to notes of the source that are not given here.

What was measured:
Format in all cases: in vivo
Phytophthora infestans [1] = tested on: Phytophthora infestans
Pyricularia oryzae = details: rice seedlings, sprayed day before inoculation; rate not given
Puccinia recondita = test: Test B: preventive control of wheat leaf rust on wheat seedlings; parameters: concentration or dose not given beside the values; details: sprayed day before inoculation, rate not given
Plasmopara viticola [2] = test: Test E: preventive control of grape downy mildew on grape seedlings
Phytophthora infestans [3] = test: whole plant or invertebrate; details: for pest or weed control at 100 g/ha: Phytophthora infestans, in Solanum tuberosum, 120 h, read-out: Test F disease control rating; for Test F disease control rating: 100 g/ha on potato seedlings, sprayed day after inoculation
Plasmopara viticola [4] = test: Test G: curative control of grape downy mildew on grape seedlings (sprayed after inoculation); details: sprayed day after inoculation
[5] = tested on: Erysiphe graminis f. sp. tritici; test: Test A: preventive control of wheat powdery mildew on wheat seedlings; parameters: concentration or dose not given beside the values; details: sprayed day before inoculation, rated after 7 days, rate not given
[6] = tomato (or potato) seedlings, sprayed day before inoculation, rate not given
[7] = sprayed day before inoculation, rate not given

## CC(NC(=O)c1c(Cl)ccnc1Cl)c1ncc(Cl)cc1Cl (racemic) [Compound 1, 2,4-Dichloro-N-[1-(3,5-dichloro-2-pyridinyl)ethyl]-3-pyridinecarboxamide]
Phytophthora infestans [1]; [6]
  Test D disease control rating: 100%
Pyricularia oryzae
  Test C disease control rating: 0%
Puccinia recondita
  Test B disease control rating: 38%
Plasmopara viticola [2]; [7]
  Test E disease control rating: 99%
Phytophthora infestans [3]
  pest or weed control at 100 g/ha: 87%
Plasmopara viticola [4]; rate not given
  Test G disease control rating: 100%
[5]
  Test A disease control rating: 0%

## CC(NC(=O)c1c(Cl)ccnc1Cl)c1ncc(Br)cc1Cl (racemic) [Compound 2, N-[1-(5-bromo-3-chloro-2-pyridinyl)ethyl]-2,4-dichloro-3-pyridinecarboxamide]
Phytophthora infestans [1]; [6]
  Test D disease control rating: 100%
Pyricularia oryzae
  Test C disease control rating: 0%
Puccinia recondita
  Test B disease control rating: 19%
Plasmopara viticola [2]; [7]
  Test E disease control rating: 100%
Phytophthora infestans [3]
  pest or weed control at 100 g/ha: 93%
Plasmopara viticola [4]; rate not given
  Test G disease control rating: 100%
[5]
  Test A disease control rating: 0%

## CC(NC(=O)c1c(Cl)ccnc1Cl)c1ncc(I)cc1Cl (stereo not shown) [Compound 3, N-[1-(3-chloro-5-iodo-2-pyridinyl)ethyl]-2,4-dichloro-3-pyridinecarboxamide]
Phytophthora infestans [1]; [6]
  Test D disease control rating: 100%
Puccinia recondita
  Test B disease control rating: 19%
Plasmopara viticola [2]; [7]
  Test E disease control rating: 95%
Phytophthora infestans [3]
  pest or weed control at 100 g/ha: 88%
Plasmopara viticola [4]; rate not given
  Test G disease control rating: 100%
[5]
  Test A disease control rating: 0%

## O=C(NCc1ncc(Cl)cc1Cl)c1c(Cl)ccnc1Cl [Compound 4, 2,4-Dichloro-N-[(3,5-dichloro-2-pyridinyl)methyl]-3-pyridinecarboxamide]
Phytophthora infestans [1]; [6]
  Test D disease control rating: 100%
Puccinia recondita
  Test B disease control rating: 9%
Plasmopara viticola [2]; [7]
  Test E disease control rating: 70%
Phytophthora infestans [3]
  pest or weed control at 100 g/ha: 100%
Plasmopara viticola [4]; rate not given
  Test G disease control rating: 100%
[5]
  Test A disease control rating: 0%

## CC(NC(=O)c1c(Cl)ccnc1Cl)c1ncc(F)cc1Cl (stereo not shown) [Compound 5]
Phytophthora infestans [1]; [6]
  Test D disease control rating: 100%
Puccinia recondita
  Test B disease control rating: 0%
Plasmopara viticola [2]; [7]
  Test E disease control rating: 70%
Phytophthora infestans [3]
  Test F disease control rating: 100%
Plasmopara viticola [4]; rate not given
  Test G disease control rating: 99%
[5]
  Test A disease control rating: 0%

## O=C(NCc1ncc(Cl)cc1Br)c1c(Cl)ccnc1Cl [Compound 6]
Phytophthora infestans [1]; [6]
  Test D disease control rating: 100%
Puccinia recondita
  Test B disease control rating: 0%
Plasmopara viticola [2]; [7]
  Test E disease control rating: 70%
Phytophthora infestans [3]
  Test F disease control rating: 100%
Plasmopara viticola [4]; rate not given
  Test G disease control rating: 99%
[5]
  Test A disease control rating: 0%

## CC(NC(=O)c1c(Cl)ccnc1Cl)c1ncc(Br)cc1Br (stereo not shown) [Compound 7]
Phytophthora infestans [1]; [6]
  Test D disease control rating: 100%
Puccinia recondita
  Test B disease control rating: 45%
Plasmopara viticola [2]; [7]
  Test E disease control rating: 100%
Phytophthora infestans [3]
  Test F disease control rating: 100%
Plasmopara viticola [4]; rate not given
  Test G disease control rating: 100%
[5]
  Test A disease control rating: 0%

## O=C(NCc1ncc(Cl)cc1I)c1c(Cl)ccnc1Cl [Compound 8]
Phytophthora infestans [1]; [6]
  Test D disease control rating: 100%
Puccinia recondita
  Test B disease control rating: 0%
Plasmopara viticola [2]; [7]
  Test E disease control rating: 100%
Phytophthora infestans [3]
  Test F disease control rating: 100%
Plasmopara viticola [4]; rate not given
  Test G disease control rating: 36%
[5]
  Test A disease control rating: 0%

## O=C(NCc1ncc(Br)cc1Cl)c1c(Cl)ccnc1Cl [Compound 9, N-[(5-bromo-3-chloro-2-pyridinyl)methyl]-2,4-dichloro-3-pyridinecarboxamide]
Phytophthora infestans [1]; [6]
  Test D disease control rating: 100%
Puccinia recondita
  Test B disease control rating: 9%
Plasmopara viticola [2]; [7]
  Test E disease control rating: 88%
Phytophthora infestans [3]
  pest or weed control at 100 g/ha: 99%
Plasmopara viticola [4]; rate not given
  Test G disease control rating: 99%
[5]
  Test A disease control rating: 0%

## Cc1cnc(C(C)NC(=O)c2c(Cl)ccnc2Cl)c(C)c1 (stereo not shown) [Compound 10]
Phytophthora infestans [1]; [6]
  Test D disease control rating: 99%
Puccinia recondita
  Test B disease control rating: 0%
Plasmopara viticola [2]; [7]
  Test E disease control rating: 57%
Phytophthora infestans [3]
  Test F disease control rating: 0%
Plasmopara viticola [4]; rate not given
  Test G disease control rating: 0%
[5]
  Test A disease control rating: 0%

## CC(NC(=O)c1c(Cl)ccnc1Cl)c1ncc(OC(F)F)cc1Cl (stereo not shown) [Compound 11]
Phytophthora infestans [1]; [6]
  Test D disease control rating: 100%
Puccinia recondita
  Test B disease control rating: 0%
Plasmopara viticola [2]; [7]
  Test E disease control rating: 100%
Phytophthora infestans [3]
  Test F disease control rating: 93%
Plasmopara viticola [4]; rate not given
  Test G disease control rating: 100%
[5]
  Test A disease control rating: 0%

## O=C(NCc1ncc(I)cc1Cl)c1c(Cl)ccnc1Cl [Compound 12, N-[(3-chloro-5-iodo-2-pyridinyl)methyl]-2,4-dichloro-3-pyridinecarboxamide]
Phytophthora infestans [1]; [6]
  Test D disease control rating: 100%
Puccinia recondita
  Test B disease control rating: 0%
Plasmopara viticola [2]; [7]
  Test E disease control rating: 59%
Phytophthora infestans [3]
  pest or weed control at 100 g/ha: 98%
Plasmopara viticola [4]; rate not given
  Test G disease control rating: 63%
[5]
  Test A disease control rating: 0%

## Cc1cc(Cl)c(C(=O)NC(C)c2ncc(Br)cc2Cl)c(Cl)n1 (stereo not shown) [Compound 13]
Phytophthora infestans [1]; [6]
  Test D disease control rating: 100%
Puccinia recondita
  Test B disease control rating: 68%
Plasmopara viticola [2]; [7]
  Test E disease control rating: 100%
Phytophthora infestans [3]
  Test F disease control rating: 100%
Plasmopara viticola [4]; rate not given
  Test G disease control rating: 100%
[5]
  Test A disease control rating: 0%

## Cc1cc(Cl)c(C(=O)NCc2ncc(Br)cc2Cl)c(Cl)n1 [Compound 14, N-[(5-bromo-3-chloro-2-pyridinyl)methyl]-2,4-dichloro-6-methyl-3-pyridinecarboxamide]
Phytophthora infestans [1]; [6]
  Test D disease control rating: 100%
Puccinia recondita
  Test B disease control rating: 41%
Plasmopara viticola [2]; [7]
  Test E disease control rating: 100%
Phytophthora infestans [3]
  pest or weed control at 100 g/ha: 98%
Plasmopara viticola [4]; rate not given
  Test G disease control rating: 100%
[5]
  Test A disease control rating: 0%

## Cc1cc(Cl)c(C(=O)NC(C)c2ncc(I)cc2Cl)c(Cl)n1 (stereo not shown) [Compound 15, N-[1-(3-chloro-5-iodo-2-pyridinyl)ethyl]-2,4-dichloro-6-methyl-3-pyridinecarboxamide]
Phytophthora infestans [1]; [6]
  Test D disease control rating: 100%
Puccinia recondita
  Test B disease control rating: 0%
Plasmopara viticola [2]; [7]
  Test E disease control rating: 100%
Phytophthora infestans [3]
  pest or weed control at 100 g/ha: 70%
Plasmopara viticola [4]; rate not given
  Test G disease control rating: 100%
[5]
  Test A disease control rating: 0%

## Cc1cc(Cl)c(C(=O)NCc2ncc(I)cc2Cl)c(Cl)n1 [Compound 16, N-[(3-chloro-5-iodo-2-pyridinyl)methyl]-2,4-dichloro-6-methyl-3-pyridinecarboxamide]
Phytophthora infestans [1]; [6]
  Test D disease control rating: 100%
Puccinia recondita
  Test B disease control rating: 32%
Plasmopara viticola [2]; [7]
  Test E disease control rating: 100%
Phytophthora infestans [3]
  pest or weed control at 100 g/ha: 83%
Plasmopara viticola [4]; rate not given
  Test G disease control rating: 95%
[5]
  Test A disease control rating: 0%

## CC(NC(=O)c1c(I)ccnc1F)c1ncc(Br)cc1Br (stereo not shown) [Compound 31]
Phytophthora infestans [1]; [6]
  Test D disease control rating: 100%
Plasmopara viticola [2]; [7]
  Test E disease control rating: 100%
Phytophthora infestans [3]
  Test F disease control rating: 79%
Plasmopara viticola [4]; rate not given
  Test G disease control rating: 100%
[5]
  Test A disease control rating: 0%

## Cc1cc(Cl)c(C(=O)NC(C)c2ncc(Br)cc2Br)c(Cl)n1 (stereo not shown) [Compound 32]
Phytophthora infestans [1]; [6]
  Test D disease control rating: 100%
Plasmopara viticola [2]; [7]
  Test E disease control rating: 100%
Phytophthora infestans [3]
  Test F disease control rating: 82%
Plasmopara viticola [4]; rate not given
  Test G disease control rating: 99%
[5]
  Test A disease control rating: 0%

## CC(NC(=O)c1c(I)ccnc1F)c1ncc(Br)cc1Cl (stereo not shown) [Compound 33]
Phytophthora infestans [1]; [6]
  Test D disease control rating: 100%
Plasmopara viticola [2]; [7]
  Test E disease control rating: 100%
Phytophthora infestans [3]
  Test F disease control rating: 100%
Plasmopara viticola [4]; rate not given
  Test G disease control rating: 100%
[5]
  Test A disease control rating: 0%

## CC(NC(=O)c1c(Cl)ccnc1Cl)c1ncc(Cl)cc1Br (stereo not shown) [Compound 34]
Phytophthora infestans [1]; [6]
  Test D disease control rating: 100%
Plasmopara viticola [2]; [7]
  Test E disease control rating: 100%
Phytophthora infestans [3]
  Test F disease control rating: 99%
Plasmopara viticola [4]; rate not given
  Test G disease control rating: 100%
[5]
  Test A disease control rating: 0%

## O=C(NCc1ncc(I)cc1Br)c1c(Cl)ccnc1Cl [Compound 35]
Phytophthora infestans [1]; 100 g/ha on potato seedlings
  Test D disease control rating: 100# %
Plasmopara viticola [2]; rate 100 g/ha (footnote *)
  Test E disease control rating: 99* %
Phytophthora infestans [3]
  Test F disease control rating: 96%
Plasmopara viticola [4]; rate 100 g/ha (footnote *)
  Test G disease control rating: 50* %
[5]
  Test A disease control rating: 0%

## CC(NC(=O)c1c(Cl)ccnc1Cl)c1ncc(I)cc1Br (stereo not shown) [Compound 36]
Phytophthora infestans [1]; 100 g/ha on potato seedlings
  Test D disease control rating: 100# %
Plasmopara viticola [2]; rate 100 g/ha (footnote *)
  Test E disease control rating: 100* %
Phytophthora infestans [3]
  Test F disease control rating: 92%
Plasmopara viticola [4]; rate 100 g/ha (footnote *)
  Test G disease control rating: 92* %
[5]
  Test A disease control rating: 0%

## CC(NC(=O)c1c(Br)ccnc1F)c1ncc(Br)cc1Cl (stereo not shown) [Compound 37]
Phytophthora infestans [1]; [6]
  Test D disease control rating: 100%
Plasmopara viticola [2]; [7]
  Test E disease control rating: 100%
Phytophthora infestans [3]
  Test F disease control rating: 100%
Plasmopara viticola [4]; rate not given
  Test G disease control rating: 100%
[5]
  Test A disease control rating: 0%

## CC(NC(=O)c1c(Br)ccnc1F)c1ncc(Cl)cc1Cl (stereo not shown) [Compound 38]
Phytophthora infestans [1]; [6]
  Test D disease control rating: 100%
Plasmopara viticola [2]; [7]
  Test E disease control rating: 100%
Phytophthora infestans [3]
  Test F disease control rating: 100%
Plasmopara viticola [4]; rate not given
  Test G disease control rating: 100%
[5]
  Test A disease control rating: 0%

## CC(NC(=O)c1c(Br)ccnc1F)c1ncc(Br)cc1Br (stereo not shown) [Compound 39]
Phytophthora infestans [1]; [6]
  Test D disease control rating: 100%
Plasmopara viticola [2]; [7]
  Test E disease control rating: 100%
Phytophthora infestans [3]
  Test F disease control rating: 100%
Plasmopara viticola [4]; rate not given
  Test G disease control rating: 100%
[5]
  Test A disease control rating: 0%

## Cc1cc(Cl)c(C(=O)NCc2ncc(Cl)cc2Br)c(Cl)n1 [Compound 40]
Phytophthora infestans [1]; [6]
  Test D disease control rating: 100%
Plasmopara viticola [2]; [7]
  Test E disease control rating: 100%
Phytophthora infestans [3]
  Test F disease control rating: 95%
Plasmopara viticola [4]; rate not given
  Test G disease control rating: 99%
[5]
  Test A disease control rating: 0%

## Cc1cc(Cl)c(C(=O)NC(C)c2ncc(Cl)cc2Br)c(Cl)n1 (stereo not shown) [Compound 41]
Phytophthora infestans [1]; [6]
  Test D disease control rating: 100%
Plasmopara viticola [2]; [7]
  Test E disease control rating: 100%
Phytophthora infestans [3]
  Test F disease control rating: 97%
Plasmopara viticola [4]; rate not given
  Test G disease control rating: 100%
[5]
  Test A disease control rating: 0%

## Cc1cc(Cl)c(C(=O)NCc2ncc(I)cc2Br)c(Cl)n1 [Compound 42]
Phytophthora infestans [1]; [6]
  Test D disease control rating: 100%
Plasmopara viticola [2]; [7]
  Test E disease control rating: 100%
Phytophthora infestans [3]
  Test F disease control rating: 93%
Plasmopara viticola [4]; rate not given
  Test G disease control rating: 100%
[5]
  Test A disease control rating: 0%

## Cc1cc(Cl)c(C(=O)NC(C)c2ncc(I)cc2Br)c(Cl)n1 (stereo not shown) [Compound 43]
Phytophthora infestans [1]; [6]
  Test D disease control rating: 100%
Plasmopara viticola [2]; [7]
  Test E disease control rating: 100%
Phytophthora infestans [3]
  Test F disease control rating: 90%
Plasmopara viticola [4]; rate not given
  Test G disease control rating: 100%
[5]
  Test A disease control rating: 0%
